According to publication PMC8440459 (Neurotoxicology, 2021):
pIC50: −log10 of the molar value. Entries after “also recorded” stand apart in the source; their conditions may differ.

Assays:
equine liver GST [1] = target: T1, equine liver GST (Equus caballus, UniProt A0A9L0RPC4); assay: Protection of GST activity from DOPAL, DA or DOPAC; format: biochemical; conditions: 1mM protectant, 100μM DA
equine liver GST [2] = target: T1, equine liver GST; assay: Nitro blue tetrazolium staining of equine liver GST; conditions: 1mM protectant
[3] = target: bovine serum albumin (BSA) (Bos taurus, UniProt P02769); assay: Nitro blue tetrazolium staining of BSA modified by DOPAL; conditions: 0.5mg/mL BSA, 4 hours at 37°C, L-cysteine effect at 1mM
Sequence of bovine serum albumin (BSA) (P02769 25-607): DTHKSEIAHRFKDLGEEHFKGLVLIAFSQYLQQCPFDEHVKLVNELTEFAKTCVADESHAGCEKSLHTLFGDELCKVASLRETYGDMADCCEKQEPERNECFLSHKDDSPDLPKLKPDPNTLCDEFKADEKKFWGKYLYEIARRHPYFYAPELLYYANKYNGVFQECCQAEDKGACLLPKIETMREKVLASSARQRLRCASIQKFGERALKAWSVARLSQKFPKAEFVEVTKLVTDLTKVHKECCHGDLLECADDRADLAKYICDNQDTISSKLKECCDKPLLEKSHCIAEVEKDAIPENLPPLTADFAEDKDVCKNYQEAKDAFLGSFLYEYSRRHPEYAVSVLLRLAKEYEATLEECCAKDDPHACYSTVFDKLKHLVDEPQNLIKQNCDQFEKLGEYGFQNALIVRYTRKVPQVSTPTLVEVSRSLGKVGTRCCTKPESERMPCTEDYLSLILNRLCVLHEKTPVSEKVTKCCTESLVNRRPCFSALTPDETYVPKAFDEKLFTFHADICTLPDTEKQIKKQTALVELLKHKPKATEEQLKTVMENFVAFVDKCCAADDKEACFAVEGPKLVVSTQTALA

[4] = target: GST isolated from N27 dopaminergic cells (Rattus norvegicus, UniProt P04906); assay: CDNB assay of GST isolated from N27 cells; format: biochemical
Sequence of GST isolated from N27 dopaminergic cells (P04906 whole entry): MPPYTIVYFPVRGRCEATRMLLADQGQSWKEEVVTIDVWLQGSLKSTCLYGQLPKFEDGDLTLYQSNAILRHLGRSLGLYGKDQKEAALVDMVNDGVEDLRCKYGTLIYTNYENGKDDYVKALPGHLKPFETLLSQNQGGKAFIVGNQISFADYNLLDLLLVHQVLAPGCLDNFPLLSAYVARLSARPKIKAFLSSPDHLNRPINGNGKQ

equine liver GST [5] = target: T1, equine liver GST; assay: Time dependency of equine liver GST inhibition; format: biochemical; conditions: for GST activity after 24-hour incubation: 100μM inhibitor, compared with 4 hours; for Time dependency of inhibition of GST activity: aliquots after 1, 2 and 4 hours of incubation
equine liver GST [6] = target: T1, equine liver GST; assay: Reversibility of equine liver GST inhibition; format: biochemical; conditions: for Reversibility of inhibition of GST activity: 100μM inhibitor, with or without size exclusion column; for GST activity after application to Bio-Spin 6 Tris Columns / Inhibition of GST after incubation with known reversible inhibitor: 500μM, data not shown; for GST activity after application to Bio-Spin 6 Tris Columns: after column; for Inhibition of GST after incubation with known reversible inhibitor: before column
equine liver GST [7] = target: T1, equine liver GST; format: biochemical; conditions: 4 hours at 37°C
dopaminergic cells = conditions: ref Schamp and Doorn, 2017; cited from earlier work

Structure (SMILES): NCCC(=O)N[C@@H](Cc1cnc[nH]1)C(=O)O [Carnosine, carnosine]
- Protection of GST activity against inhibition by DA (equine liver GST [1]): significant protection; also recorded: partial activity retention
- Protection against modification of equine liver GST by 100 μM DOPAL (NBT stain) (equine liver GST [2]): moderately protective
- Reduction of NBT staining of BSA modified by 200μM DOPAL [3]: did not significantly reduce protein modification

Structure (SMILES): NCCc1ccc(O)c(O)c1 [DA, dopamine]
- pIC50 [4]: 4.08
- GST activity after 24-hour incubation (equine liver GST [5]): almost completely nulls enzyme activity
- Time dependency of inhibition of GST activity (equine liver GST [5]): time dependent
- Reversibility of inhibition of GST activity (equine liver GST [6]): irreversible

Structure (SMILES): O=C(O)Cc1ccc(O)c(O)c1 [DOPAC, 3,4-dihydroxyphenylacetic acid]
- pIC50 [4]: 3.59
- Time dependency of inhibition of GST activity (equine liver GST [5]): time dependent
- Reversibility of inhibition of GST activity (equine liver GST [6]): irreversible

Structure (SMILES): O=CCc1ccc(O)c(O)c1 [DOPAL, 3,4-dihydroxyphenylacetaldehyde]
- pIC50 [4]: 4.50
- Concentration giving significant inhibition of commercially available GST (equine liver GST [7]): 5 µM
- GST activity after 24-hour incubation (equine liver GST [5]): almost completely nulls enzyme activity
- Time dependency of inhibition of GST activity (equine liver GST [5]): time dependent
- Reversibility of inhibition of GST activity (equine liver GST [6]): irreversible
- Concentration toxic to dopaminergic cells (dopaminergic cells): 7 µM

Structure (SMILES): N[C@@H](CS)C(=O)O [L-cysteine]
- Reduction of NBT staining of BSA modified by 200μM DOPAL [3]: significantly reduced NBT staining

Structure (SMILES): CCCCCCSC[C@H](NC(=O)CC[C@H](N)C(=O)O)C(=O)NCC(=O)O [S-hexylglutathione]
- GST activity after application to Bio-Spin 6 Tris Columns (equine liver GST [6]): regained the full value of its original activity
- Inhibition of GST after incubation with known reversible inhibitor (equine liver GST [6]): significant inhibition

Structure (SMILES): O=C(O)/C=C/c1ccc(O)c(O)c1 [caffeic acid]
- GST activity after application to Bio-Spin 6 Tris Columns (equine liver GST [6]): regained the full value of its original activity
- Inhibition of GST after incubation with known reversible inhibitor (equine liver GST [6]): significant inhibition
